Drawing on US20100173888A1 (Pfizer Inc, priority 2008, published 2010), this text covers IC50 for 28 compounds.

Usually IC50 stands for the midpoint of a concentration-inhibition curve.

human recombinant H-PGDS, sequence (O60760 whole entry): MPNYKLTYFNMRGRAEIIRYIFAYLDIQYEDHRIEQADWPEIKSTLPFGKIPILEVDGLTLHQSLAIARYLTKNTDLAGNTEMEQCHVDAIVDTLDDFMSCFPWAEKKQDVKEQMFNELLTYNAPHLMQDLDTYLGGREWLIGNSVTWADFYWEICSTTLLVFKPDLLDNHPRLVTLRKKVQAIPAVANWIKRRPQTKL

The target in the assay is human recombinant H-PGDS (Homo sapiens, UniProt O60760). Description: Slightly modified fluorescence intensity h-PGDS TBA enzyme assay (1:40,000 enzyme, 40 second reaction, 1/2 log dilutions, top concentration typically 10 μM). In kind it is biochemical. Particulars: slightly modified assay: 1:40,000 human recombinant H-PGDS. The procedure:
Fluoresecence Intensity h-PGDSTBA Enzyme Assay
Prostaglandin D Synthase (PGDS) converts the substrate prostaglandin H2 (PGH2) to prostaglandin D2. The depletion of PGH2 was measured via an Fe(II) reduction of the remaining PGH2 to malondialdehyde (MDA) and 12-HHT. The enzyme assay is based on the quantitative formation of a fluorescent complex from the non-fluorescent compounds MDA and 2-thiobarbituric acid (TBA), substantially as described in U.S. patent application publication US-2004/152148 by Lombardt.
Examples 6-8, 11a-16, 23, 26-47, 49-103, 105-113, 115-118 and 126-128 were tested in a slightly modified assay: The enzyme assay (30 μls during biological process) contained 100 mM Trizma pH 8.0, 100 μM MgCl2, 0.1 mg/ml IgG Rabbit serum, 5.0 μM PGH2 (Cayman; ethanol solution, #17020), 2.5 mM L-Glutathione (Sigma; reduced form #G4251), 1:40,000 human recombinant H-PGDS (from 1 mg/ml), 0.5% DMSO and inhibitor (varying concentration). 3 μls of diluted inhibitor (dissolved in DMSO) was plated into a 384-well assay plate followed by a 24 μl addition of an enzyme solution containing h-PGDS, Trizma, MgCl2, IgG and L-Glutathione. After pre-incubation of inhibitor and enzyme solution for 10 minutes at room temperature, the reaction was initiated with a 3 μl addition of substrate solution in 10 mM HCl. The reaction was terminated after 40 second by the addition of 3 μl stop buffer containing FeCl2 and citric acid. After addition of 45 μls of TBA plates were heated for one hour in a 70° C. oven. Plates were cooled at room temperature overnight and read on a plate reader the next day with excitation @ 530 nm and emission @ 560 nm. IC50' s of inhibitors were calculated with a 4-parameter fit using 11 inhibitor concentrations in duplicate with ½ log serial dilutions. Controls on each plate included no inhibitor (zero % effect) and an inhibitor 500-fold in excess of its' IC50 (100% effect). The highest inhibitor concentration tested was typically 10 μM.
On to `O=C(NC1CCC(N2CC[C@@H](O)C2)CC1)c1ccc(-c2cccc(F)c2)nc1` (single isomer, unassigned) [Example 61], for which the IC50 came to 45 nM. Under `C[C@@H]1CNCCN1C(=O)[C@H]1CC[C@H](NC(=O)c2ccc(-c3cccc(F)c3)nc2)CC1` [Example 108, 6-(3-Fluorophenyl)-N-(trans-4-{[(2R)-2-methylpiperazin-1-yl]carbonyl}cyclohexyl)nicotinamide] stands 21.8 nM; under `CN1CCN(C2CCC(NC(=O)c3ccc(-c4cccc(F)c4)nc3)CC2)CC1` (single isomer, unassigned) [Example 52, 6-(3-Fluorophenyl)-N-[-4-(4-methylpiperazin-1-yl)cyclohexyl]nicotinamide], 39.1 nM; under `CN(C)C[C@H]1C[C@@H](NC(=O)c2ccc(-c3cccc(F)c3)nc2)C1` [Example 7], 292 nM. Under `CCN1CCN(C(=O)[C@H]2CCC[C@@H](NC(=O)c3ccc(-c4cccc(F)c4)nc3)C2)CC1` (racemic) [Example 41, N-{cis-3-[(4-Ethylpiperazin-1-yl)carbonyl]cyclohexyl}-6-(3-fluorophenyl)nicotinamide] stands 7.18 nM. Regarding `O=C(N[C@@H]1CC[C@H](C(=O)N2CCC(O)CC2)C1)c1ccc(-c2cccc(F)c2)nc1` [Example 14, 6-(3-Fluorophenyl)-N-{(1R,3S)-3-[(4-hydroxypiperidin-1-yl)carbonyl]cyclopentyl}nicotinamide], the IC50 stood at 7.48 nM. In the case of `O=C(N[C@H]1CCC[C@@H](C(=O)N2CCOCC2)C1)c1ccc(-c2cccc(F)c2)nc1` (relative stereo) [Example 36, 6-(3-Fluorophenyl)-N-[cis-3-(morpholin-4-ylcarbonyl)cyclohexyl]nicotinamide], the IC50 is 8.34 nM.

`CCN1CCC(CNC(=O)[C@@H]2CCC[C@H](NC(=O)c3ccc(-c4cccc(F)c4)nc3)C2)C1` (relative stereo) [Example 64J, N-[cis-3-{[(1-ethylpyrrolidin-3-yl)methyl]carbamoyl}cyclohexyl]-6-(3-fluorophenyl)nicotinamide]: the IC50 was determined as 19.6 nM. Turning to `COCCNC(=O)[C@@H]1CCC[C@H](NC(=O)c2ccc(-c3cccc(F)c3)nc2)C1` [Example 64A, 6-(3-fluorophenyl)-N-{(1S,3R)-3-[(2-methoxyethyl)carbamoyl]cyclohexyl}nicotinamide], the IC50 was 8.3 nM. Under `CCN(CC)C(=O)[C@@H]1CCC[C@H](NC(=O)c2ccc(-c3cccc(F)c3)nc2)C1` (relative stereo) [Example 40, N-[cis-3-(Diethylcarbamoyl)cyclohexyl]-6-(3-fluorophenyl)nicotinamide] stands 9 nM; under `O=C(N[C@H]1CC[C@@H](O)CC1)c1ccc(-c2cccc(F)c2)nc1` [Example 65, 6-(3-Fluorophenyl)-N-(cis-4-hydroxycyclohexyl)nicotinamide], 15.7 nM.

Consider `O=C(NC1CCc2ncccc2C1)c1ccc(-c2cccc(F)c2)nc1` (stereo not shown) [Example 127, 6-(3-Fluorophenyl)-N-(5,6,7,8-tetrahydroquinolin-6-yl)nicotinamide], for which the IC50 was determined as 5.03 nM. Consider `COCCN(C)C1CCC(NC(=O)c2ccc(-c3cccc(F)c3)nc2)CC1` (single isomer, unassigned) [Example 58, 6-(3-Fluorophenyl)-N-{4-[(2-methoxyethyl)(methyl)amino]cyclohexyl}nicotinamide], for which the IC50 was 307 nM. With `O=C(N[C@H]1CC[C@H](CO)CC1)c1ccc(-c2cccc(F)c2)nc1` [Example 103, 6-(3-Fluorophenyl)-N-[trans-4-(hydroxymethyl)cyclohexyl]nicotinamide], the IC50 was determined as 1.43 nM. In the case of `NC1CCC(NC(=O)c2ccc(-c3cccc(F)c3)nc2)CC1` (stereo not shown) [Example 44, N-(4-Aminocyclohexyl)-6-(3-fluorophenyl)nicotinamide] it was 67.5 nM.

Consider `O=C(N[C@H]1CCC[C@@H](C(=O)N2CCN(C3CC3)CC2)C1)c1ccc(-c2cccc(F)c2)nc1` (relative stereo) [Example 43, N-{cis-3-[(4-Cyclopropylpiperazin-1-yl)carbonyl]cyclohexyl}-6-(3-fluorophenyl)nicotinamide], for which the IC50 amounted to 14.4 nM.

On to `O=C(N[C@H]1CC[C@H](C(=O)N2CCOCC2)CC1)c1ccc(-c2cccc(F)c2)nc1` [Example 91, 6-(3-Fluorophenyl)-N-[trans-4-(morpholin-4-ylcarbonyl)cyclohexyl]nicotinamide], for which the IC50 was determined as 3.94 nM. In the case of `O=C(N[C@H]1CC[C@@H](C(=O)NC2CCCC2)CC1)c1ccc(-c2cccc(F)c2)nc1` [Example 69, N-[cis-4-(Cyclopentylcarbmoyl)cyclohexyl]-6-(3-fluorophenyl)nicotinamide] it was 14.7 nM. As to `CN(C)C(=O)[C@H]1CC[C@H](NC(=O)c2ccc(-c3cccc(F)c3)nc2)CC1` [Example 92, N-[trans-4-(Dimethylcarbamoyl)cyclohexyl]-6-(3-fluorophenyl)nicotinamide], the IC50 is 2.71 nM.

With `N[C@H]1CCN(C(=O)[C@H]2CC[C@H](NC(=O)c3ccc(-c4cccc(F)c4)nc3)CC2)C1` [Example 98, N-(trans-4-{[(3S)-3-Aminopyrrolidin-1-yl]carbonyl}cyclohexyl)-6-(3-fluorophenyl)nicotinamide], the IC50 turned out to be 21.6 nM. With `CNCCN(C)C(=O)[C@H]1CC[C@@H](NC(=O)c2ccc(-c3cccc(F)c3)nc2)CC1` [Example 76, 6-(3-Fluorophenyl)-N-(cis-4-{methyl[2-(methylamino)ethyl]carbamoyl}cyclohexyl)nicotinamide], the IC50 was 31.8 nM. Under `O=C(NC1CCC(N2CCCOCC2)CC1)c1ccc(-c2cccc(F)c2)nc1` (stereo not shown) [Example 53, 6-(3-Fluorophenyl)-N-[4-(1,4-oxazepan-4-yl)cyclohexyl]nicotinamide] stands 9.26 nM. With `CN1CCN(C(=O)[C@H]2CC[C@@H](NC(=O)c3ccc(-c4cccc(F)c4)nc3)C2)CC1` [Example 12, 6-(3-Fluorophenyl)-N-{(1R,3S)-3-[(4-methylpiperazin-1-yl)carbonyl]cyclopentyl}nicotinamide], the IC50 came to 11.2 nM.

As for `O=C(N[C@H]1CCC[C@@H](C(=O)N2CCNCC2)C1)c1ccc(-c2cccc(F)c2)nc1` (relative stereo) [Example 42, 6-(3-Fluorophenyl)-N-[cis-3-(piperazin-1-ylcarbonyl)cyclohexyl]nicotinamide], the IC50 was determined as 10.2 nM.

As for `CC(=O)NC1CCC(NC(=O)c2ccc(-c3cccc(F)c3)nc2)CC1` (stereo not shown) [Example 46, N-(4-Acetamidocyclohexyl)-6-(3-fluorophenyl)nicotinamide], the IC50 was determined as 10.7 nM. In the case of `O=C(N[C@H]1CC[C@H](C(=O)N2CCC(O)CC2)CC1)c1ccc(-c2cccc(F)c2)nc1` [Example 85, 6-(3-Fluorophenyl)-N-{trans-4-[(4-hydroxypiperidin-1-yl)carbonyl]cyclohexyl}nicotinamide], the IC50 amounted to 2.75 nM. With `CNCCN(C)C(=O)[C@@H]1CCC[C@H](NC(=O)c2ccc(-c3cccc(F)c3)nc2)C1` (relative stereo) [Example 37, 6-(3-Fluorophenyl)-N-[cis-3-{methyl[2-(methylamino)ethyl]carbamoyl}cyclohexyl]nicotinamide], the IC50 amounted to 25.4 nM.

For the compound `NC1CN(C(=O)[C@H]2CC[C@H](NC(=O)c3ccc(-c4cccc(F)c4)nc3)CC2)C1` [Example 100, N-{trans-4-[(3-Aminoazetidin-1-yl)carbonyl]cyclohexyl}-6-(3-fluorophenyl)nicotinamide], the IC50 was found to be 12.9 nM.
